Laboratory results reported in patent publication US20260166039A1 (SCHRÖDINGER, INC., priority 2022, published 2026).
Like-named read-outs stand apart in the source and are kept apart here.

How the values were obtained:
Wee1 kinase domain = target: T1, Wee1 kinase domain (Homo sapiens, UniProt P30291); experiment: Wee1 Kinase Biochemical Assay (ADP-Glo); conditions: 15 uM ATP
T1 construct: Wee1 kinase domain was purchased from Carna (catalog #05-177); purchased Carna 05-177
Outline: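 ADP-Glo detection of ADP produced after 4 h at 25° C by 1 nM Wee1 kinase domain on 2 ng/mL poly(Lys,Tyr 4:1) with 15 uM ATP. Buffer: 40 mM Tris-HCl, 20 mM MgCl2, 0.1 mg/mL BSA, 2 mM DTT. Inhibition is relative to DMSO (high) and saturating Wee1 inhibitor (low) controls.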

[1] = tested on: phosphorylation of Cdc2 Y15 (Wee1 substrate) in A427 cells; experiment: Phosphorylated Cdc2 MSD Electrochemiluminescence Assay; type: cell-based; conditions: Homo sapiens
Protocol: Phosphorylated Cdc2 MSD Electrochemiluminescence Assay
The effect of Wee1 inhibitors on cellular phosphorylation of the Wee1 substrate Cdc2 was determined using the following protocol:
A total of 40,000 A427 cells in 100 uL culture medium (1640 medium+10% Fetal bovine serum+1% Penicillin-Streptomycin) were plated in 96-well cell culture plates. 3-fold serial dilutions of test compounds were prepared in completed PBS at 25× final concentration. After 20 hours, the plates were removed and 4 μL of each were added to the cells and incubated with shaking for 30 minutes at 37° C., 5% CO2. Each concentration was tested in duplicate. After a total 6 hours incubation, plates were removed and centrifuged for 5 minutes and 100 uL of supernatant from each well was removed. Cells were washed with 200 μL PBS and lysed with 50 μL MSD lysis buffer (Meso Scale Diagnostics) supplied with 1× complete ULTRA cocktail inhibitor (Roche).
To detect phosphorylation of Cdc2 Y15, 30 μL of capture antibody solution (CST catalog #9116S 1:200) was added into each well of the MSD plate (MSD catalog #L15XB-6), sealed and incubated at 4° C. with shaking (450 rpm) overnight. The antibody solution was removed, wells blocked with BSA solution and plates washed three times with PBST, followed by addition of 30 μl of cell lysate per well. After 2 hours of incubation, plates were washed three times with PBST. 30 μL of 1× detection antibody solution (CST catalog #4539S 1:200) was then added to each well and incubated for 1 hour. Plates were washed three times with PBST and 30 μL of 1× secondary antibody solution (MSD, catalog #:R32AB-1, 1:5000) was added to each well and incubated for 1 hour. Plates were washed three times with PBST and 150 μL of 1× Read Buffer T (MSD, catalog #R92TC-1) was added to each well of the MSD plate. The electrochemiluminescence signal was measured on a MESO SECTOR S600 plate reader. The percentage of remaining phosphorylated Cdc2 signal was calculated following the equation below.
[formula] • HC (high control): Cells treated with DMSO • Cpds: Cells treated with test compounds • LC (low control): Cells treated with positive control Wee1 inhibitor

[2] = class symbols, 1 nM Wee1 enzyme, 4 hours at 25° C.
[3] = A-427, class symbols, read-out: A427 pCDC2 MSD IC50

T1 sequence (P30291 299-569 limits assumed): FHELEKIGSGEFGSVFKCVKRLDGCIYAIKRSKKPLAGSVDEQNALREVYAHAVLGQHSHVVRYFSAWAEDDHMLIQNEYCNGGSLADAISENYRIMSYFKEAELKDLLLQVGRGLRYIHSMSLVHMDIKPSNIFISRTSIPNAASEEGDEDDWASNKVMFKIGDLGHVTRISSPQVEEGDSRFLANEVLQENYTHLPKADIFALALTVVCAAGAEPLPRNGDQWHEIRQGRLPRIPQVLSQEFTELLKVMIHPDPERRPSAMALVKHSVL

| IC50 (Wee1 kinase domain; Wee1 kinase domain, ADP-Glo) [nM] | IC50 ([1]; A-427, pCDC2 MSD) [nM] | IC50 (Wee1 kinase domain; [2]) [nM] | IC50 [1, 3] [nM] | Compound |
| --- | --- | --- | --- | --- |
| < 10 | < 100 |  |  | CN1CC(c2ccc(Nc3ncc4c(n3)N(c3cccc(N=S(C)(C)=O)n3)[C@@H]3CC(C)(C)OC[C@]43C)cc2)C1 (single isomer, unassigned) [Example 165] |
| < 10 | < 100 |  |  | CN1CCC[C@@H]1c1ccc(Nc2ncc3c(n2)N(c2cccc(N=S(C)(C)=O)n2)[C@@H]2CC(C)(C)OC[C@]32C)cc1 (single isomer, unassigned) [Example 127] |
|  |  | < 10 | 100 to 1000 | CN=[S@@](C)(=O)c1cccc(N2c3nc(Nc4ccc(N5CC6(CN(C)C6)C5)cc4)ncc3[C@@]3(C)COC(C)(C)C[C@@H]23)n1 [Example 771, (S)-methyl(methylimino)(6-((4bR,8aR)-4b,7,7-trimethyl-2-((4-(6-methyl-2,6-diazaspiro[3.3]heptan-2-yl)phenyl)amino)-4b,7,8,8a-tetrahydropyrano[3′,4′:4,5]pyrrolo[2,3-d]pyrimidin-9(5H)-yl)pyridin-2-yl)-16-sulfanone] |
| < 10 | < 100 |  |  | CNCc1cccc(N2c3nc(Nc4ccc([C@@H]5CCC(=O)N5C)cc4)ncc3[C@@]3(C)COC(C)(C)C[C@@H]23)n1 (single isomer, unassigned) [Example 52] |
|  |  | < 10 | 100 to 1000 | CN[C@@H]1CCc2ccc(N3c4nc(Nc5ccc(N6CCOCC6)cc5)ncc4[C@@]4(C)COC(C)(C)C[C@@H]34)nc21 (single isomer, unassigned) [Example 553] |
|  |  | < 10 | 100 to 1000 | CN=[S@@](C)(=O)c1cccc(N2c3nc(Nc4ccc(N5CCN(C)CC5)cc4)ncc3[C@@]3(C)COC(C)(C)C[C@@H]23)n1 (single isomer, unassigned) [Example 765] |
| < 10 | 100 to 1000 |  |  | CN=S1(=O)CCN(c2ccc(Nc3ncc4c(n3)N(c3cccc(CNC)n3)[C@@H]3CC(C)(C)OC[C@]43C)cc2)CC1 (single isomer, unassigned) [Example 65] |
|  |  | < 10 | 1000 to 10000 | CN1C[C@H]2C[C@@H]1CN2c1ccc(Nc2ncc3c(n2)N(c2ccn(C)n2)[C@@H]2CC(C)(C)OC[C@]32C)cc1 (single isomer, unassigned) [Example 520] |
| < 10 | 100 to 1000 |  |  | CN[C@H]1CCN(c2ccc(Nc3ncc4c(n3)N(c3cccc(N5C(=O)OC[C@@H]5C)n3)[C@@H]3CC(C)(C)OC[C@]43C)cc2)C1 (single isomer, unassigned) [Example 317] |
| < 10 | 100 to 1000 |  |  | C[C@H]1COC(=O)N1c1cccc(N2c3nc(Nc4ccc([C@@H]5CCN(C)C5)cc4)ncc3[C@@]3(C)COC(C)(C)C[C@@H]23)n1 (single isomer, unassigned) [Example 305] |
|  |  | < 10 | 100 to 1000 | CN1CC[C@H]2CN(c3ccc(Nc4ncc5c(n4)N(c4cccc(N6CCOC6=O)n4)[C@@H]4CC(C)(C)OC[C@]54C)cc3)C[C@H]21 [Example 684, 3-(6-((4bR,8aR)-4b,7,7-trimethyl-2-((4-((3aS,6aS)-1-methylhexahydropyrrolo[3,4-b]pyrrol-5(1H)-yl)phenyl)amino)-4b,7,8,8a-tetrahydropyrano[3′,4′:4,5]pyrrolo[2,3-d]pyrimidin-9(5H)-yl)pyridin-2-yl)oxazolidin-2-one] |
|  |  | < 10 | 100 to 1000 | CC1(C)C[C@H]2N(c3cccc(N=S(C)(C)=O)n3)c3nc(Nc4ccc(N5CCN6CCC[C@@H]6C5)cc4)ncc3[C@@]2(C)CO1 (single isomer, unassigned) [Example 505] |
|  |  | < 10 | < 100 | CN1CC(c2ccc(Nc3ncc4c(n3)N(c3cccc(N=S5(=O)CCCC5)n3)[C@@H]3CC(C)(C)OC[C@]43C)cc2)C1 (single isomer, unassigned) [Example 754] |
|  |  | < 10 | < 100 | CN1CC[C@H]2CN(c3ccc(Nc4ncc5c(n4)N(c4cccc(N=S(C)(C)=O)n4)[C@@H]4CC(C)(C)OC[C@]54C)cc3)C[C@H]21 (single isomer, unassigned) [Example 503] |
|  |  | < 10 | 100 to 1000 | CC1(C)C[C@H]2N(c3cccc(N=S(C)(C)=O)n3)c3nc(N)ncc3[C@@]2(C)CO1 (single isomer, unassigned) [Example 746] |
| < 10 | 1000 to 10000 |  |  | Cn1nc(Nc2ncc3c(n2)N(c2cccc(N=S(C)(C)=O)n2)[C@@H]2CC(C)(C)OC[C@]32C)ccc1=O (single isomer, unassigned) [Example 365] |
| < 10 | < 100 |  |  | Cc1cc(Nc2ncc3c(n2)N(c2cccc(N=S(C)(C)=O)n2)[C@@H]2CC(C)(C)OC[C@]32C)ccc1[C@@H]1CCN(C)C1 (single isomer, unassigned) [Example 145] |
|  |  | < 10 | 100 to 1000 | CN1C[C@@H]2C[C@H]1CN2c1ccc(Nc2ncc3c(n2)N(c2ccn(C)n2)[C@@H]2CC(C)(C)OC[C@]32C)cc1 (single isomer, unassigned) [Example 519] |
| < 10 | 1000 to 10000 |  |  | CN1CC[C@H](n2ccc(Nc3ncc4c(n3)N(c3cccc(N=S(C)(C)=O)n3)[C@@H]3CC(C)(C)OC[C@]43C)n2)C1 (single isomer, unassigned) [Example 225] |
| < 10 | < 100 |  |  | CNCc1cccc(N2c3nc(Nc4ccc([C@@H]5CCOC5)cc4)ncc3[C@@]3(C)COC(C)(C)C[C@@H]23)n1 (single isomer, unassigned) [Example 38] |
|  |  | < 10 | 100 to 1000 | C[C@H]1CCC(=O)N1c1cccc(N2c3nc(Nc4ccc(N5CC6(CN(C)C6)C5)cc4)ncc3[C@@]3(C)COC(C)(C)C[C@@H]23)n1 (single isomer, unassigned) [Example 725] |
| < 10 | 100 to 1000 |  |  | CC1(C)C[C@H]2N(c3cccc(N=S(C)(C)=O)n3)c3nc(Nc4ccc([C@H]5CCCN5)nc4)ncc3[C@@]2(C)CO1 (single isomer, unassigned) [Example 212] |
|  |  | < 10 | < 100 | CC1(C)C[C@H]2N(c3cccc([C@@H]4COCCN4)n3)c3nc(Nc4ccc(N5CCOCC5)cc4)ncc3[C@@]2(C)CO1 [Example 734, (4bR,8aR)-4b,7,7-trimethyl-9-(6-((R)-morpholin-3-yl)pyridin-2-yl)-N-(4-morpholinophenyl)-4b,5,7,8,8a,9-hexahydropyrano[3′,4′:4,5]pyrrolo[2,3-d]pyrimidin-2-amine] |
|  |  | < 10 | 100 to 1000 | CN1CC[C@@H]2CN(c3ccc(Nc4ncc5c(n4)N(c4cccc(N6CCOC6=O)n4)[C@@H]4CC(C)(C)OC[C@]54C)cc3)C[C@@H]21 [Example 705, 3-(6-((4bR,8aR)-4b,7,7-trimethyl-2-((4-((3aR,6aR)-1-methylhexahydropyrrolo[3,4-b]pyrrol-5(1H)-yl)phenyl)amino)-4b,7,8,8a-tetrahydropyrano[3′,4′:4,5]pyrrolo[2,3-d]pyrimidin-9(5H)-yl)pyridin-2-yl)oxazolidin-2-one] |
| < 10 | 100 to 1000 |  |  | C[C@H]1COC(=O)N1c1cccc(N2c3nc(Nc4ccc(N5CCN(C)CC5)nn4)ncc3[C@@]3(C)COC(C)(C)C[C@@H]23)n1 [Example 249] |
| < 10 | 100 to 1000 |  |  | CC1(C)C[C@H]2N(c3cccc(N=S(C)(C)=O)n3)c3nc(Nc4cncc(F)c4)ncc3[C@@]2(C)CO1 (single isomer, unassigned) [Example 369] |
|  |  | < 10 | < 100 | CN1CCN(c2cccc(Nc3ncc4c(n3)N(c3cccc(N=S(C)(C)=O)n3)[C@@H]3CC(C)(C)OC[C@]43C)c2)CC1 (single isomer, unassigned) [Example 486] |
|  |  | 10 to 100 | 1000 to 10000 | CC1(C)C[C@H]2N(c3cccc(N=S(C)(C)=O)n3)c3nc(NC(=O)[C@H]4C[C@@H]4c4cccnc4)ncc3[C@@]2(C)CO1 (single isomer, unassigned) [Example 402] |

| Compound | IC50 (Wee1 kinase domain; Wee1 kinase domain, ADP-Glo) [nM] | IC50 ([1]; A-427, pCDC2 MSD) [nM] | IC50 (Wee1 kinase domain; [2]) [nM] | IC50 [1, 3] [nM] |
| --- | --- | --- | --- | --- |
| CN1[C@@H]2C[C@H]1CN(c1ccc(Nc3ncc4c(n3)N(c3cccc(C(C)(C)O)n3)[C@@H]3CC(C)(C)OC[C@]43C)cc1)C2 (single isomer, unassigned) [Example 441] |  |  | < 10 | 100 to 1000 |
